The subject of assay [1] is platelet aggregation (collagen-induced, platelet rich plasma). Nature of the assay: Inhibition of collagen-induced platelet aggregation ex vivo after oral administration to male rats. It counts as in vivo. To be noted: rats bled after one to 2 hours, collagen 500 mcg./ml. On the procedure:
The compounds were administered orally to male rats in various concentrations. After one to 2 hours the rats were bled and platelet rich plasma obtained. Collagen was added at a concentration of 500 mcg./ml. to induce platelet aggregation and comparisons were made between control and treated samples. The percent inhibition of aggregation produced by the test compound was recorded.

Assay [2] deals with respiratory depression associated with platelet aggregation and thrombosis induced by arachidonic acid. Put plainly: Inhibition of arachidonic acid-induced respiratory depression in mice. The format is in vivo. To be noted: arachidonic acid 50 mg./kg. i.v. two hours later. Here is the method: In a second test the in vivo activity is determined in mice. […] Mice were treated orally by gastric lavage with the test compounds in a starch suspension at various dosage levels. Two hours later a challenge dose of arachidonic acid was given to the mice intravenously at a concentration of 50 mg./kg. The period of respiratory distress for each animal was recorded in seconds by observation. The results of a typical compound of this invention appear in Table II in terms of percent inhibition in comparison with controls.

Assay [3] deals with carrageenin-induced edema. Put plainly: Acute anti-inflammatory activity, carrageenin-induced paw edema. To be noted: 250 mg./kg. by gavage; 5 hours after drug, 4 hours after carrageenin; edema of control animals/edema of treated animals; >1.41 considered active. The format is in vivo, Royal Hart, Wistar strain rats. On the procedure: In determining the acute anti-inflammatory activity, Royal Hart, Wistar strain rats ranging in weight from 80 to 90 grams were used. The rats were fasted overnight prior to dosing but had free access to water. The compounds were administered in aqueous suspension, by gavage, in a column of 1.7 ml. per 50 g. of rat [corresponds to the hydration volume used by Winter, et al., Proc. Soc. Exp. Biol. and Med. 111, 544-547 (1962)].
The phlogistic agent used was carrageenin prepared as a sterile 1% suspension in 0.9% aqueous sodium chloride for routine testing. A volume of 0.05 ml. was injected through a 26 gauge needle into the plantar tissue of the right hind paw. Measurements were made 5 hours after drug administration (4 hours after carrageenin challenge).
Volumes of both the normal and carrageenin inflamed feet were determined. The difference between the two measurements is considered to be the increased edema due to the carrageenin administration. Results are expressed as a C/T efficacy ratio (edema of control animals/edema of treated animals) and a C/T ratio of greater than 1.41 is considered active.

The test system of assay [4] is adjuvant induced arthritis (Freund's adjuvant). Nature of the assay: Chronic inflammation, adjuvant induced arthritis. To be noted: 50 mg./kg. oral once daily, days 0 through 13. It counts as in vivo, Royal Hart, Wistar strain rats. On the procedure:
In a second test the activity against chronic inflammation in adjuvant induced arthritis was determined. Groups of 3 Royal Hart, Wistar strain rats, weighing 200±10 g. each were injected intradermally in the right hind paw with Freund's adjuvant (dried human tubercle bacilli in a mineral oil vehicle) at a dose of 2 mg./kg. of body weight. Test compounds were administered orally in a 1.5% starch vehicle at 50 mg./kg. of body weight once daily on days 0 through 13 post challenge. Control rats were treated in a similar manner, but given only starch vehicle. On the 14th day post challenge the diameter of the injected paw (primary lesion) was measured by micrometer caliper. The volume of inflamed paws was estimated from these measurements and the results are expressed as percent inhibition of swelling as compared to controls. At the same time, the other inflamed sites, such as ears, paws and tail (secondary lesions) were observed and each rat was graded as to the degree of inflammation and swelling present. The grading is based on a scale of 0 to 24, where 0 represents a complete absence of induced arthritic nodules and 24 represents the maximum degree of inflammation. The mean grade for each treated group is calculated and the effects of each compound are expressed as percent inhibition of the control grade. Table IV records the results of this test on a typical compound of this invention.

Assay [5] has as its system ultraviolet induced erythema. Nature of the assay: Ultraviolet induced erythema in guinea pigs. It counts as in vivo, Albino guinea pigs. To be noted: maximum score 3.0. On the procedure: Another method of determining a drug effect on conditions which result in inflammation is by measuring the effect on ultraviolet induced erythema in guinea pigs. Albino guinea pigs were depilitated on their flanks, the evening before testing, with a standard mixture of barium sulfide and gum acacia. On the morning of the test, groups of 4 guinea pigs were dosed by gavage one hour prior (-1 hour) to ultraviolet exposure. At 0 hour they were restrained in a plastic container which allows exposure of 3 circular spots. They were then exposed to ultraviolet irradiation from a "Hanovia" Kromayer lamp, model 10, for 60 seconds. At one and four hours, the degree of erythema for each of the three sites was assessed according to the following scoring system: 0=no erythema, 0.5=incomplete circle or faint erythema and 1.0=[…] circle of distinct erythema. Thus, the maximum score for each animal was 3.0.

For assay [6] the following is noted: British Pat. No. 1,390,091; cited from earlier work.
Assay [7] deals with aggregation of thromocytes. To be noted: British Pat. No. 1,390,091; cited from earlier work.
[8] abbreviates: 62.5 mg./kg. by gavage 1 hour prior to UV, 4 animals.
[9] abbreviates: 125 mg./kg. by gavage 1 hour prior to UV, 4 animals.
[10] abbreviates: 250 mg./kg. by gavage 1 hour prior to UV, 8 animals.

This is an account of results in US4219668A, “4-Hydroxy,4-biphenylbutyric acid” (American Cyanamid Company, priority 1979, dated 1980).

Regarding `O=C(O)CCC(O)c1ccc(-c2ccccc2)cc1` (stereo not drawn) [γ-Hydroxy-4-biphenylbutyric acid], the “% Inhibition (platelet aggregation)” value in assay [1] (10 mg./kg. oral) came to 25%; in assay [1] (25 mg./kg. oral) it was 25%; in assay [1] (50 mg./kg. oral), 19%. The “% Inhibition (period of respiratory distress)” value in assay [2] (1 mg./kg. oral) turned out to be 46%; in assay [2] (10 mg./kg. oral) it was 51%; in assay [2] (25 mg./kg. oral) it was 66%; in assay [2] (50 mg./kg. oral), 63%. The “C/T Edema Ratio” value in assay [3] was 2.0. For the same compound, the “% Inhibition of Swelling (primary lesion)” value in assay [4] (14th day post challenge, injected paw) was 51%. Moreover, the “% Inhibition of Control grade (secondary lesion)” value in assay [4] (14th day, grade scale 0 to 24) turned out to be 30%. Further, the results for the “Score (avg.) 1 hour” value in assay [5] (setting [8]), in assay [5] (setting [9]) and in assay [5] (setting [10]) were 0, 0.4 and 0, respectively. The “Score (avg.) 4 hour” value in assay [5] (setting [8]) is on record as 2.1; in assay [5] (setting [9]), 2.9; in assay [5] (setting [10]) it was 2.0.
Take `O=C1CCC(c2ccc(-c3ccccc3)cc2)O1` (stereo not drawn) [5-(4-biphenylyl)-2-hydro-2-(3H)-furanone]: the “activity as indicated (antiphlogistic)” value in assay [6] is on record as “antiphlogistic”. Also, the “activity as indicated (aggregation of thromocytes)” value in assay [7] is given as “inhibitory”.
